# Results reported in US20210251232A1, “USE OF FUNGICIDAL ACTIVE COMPOUND I DERIVATIVE AND MIXTURES THEREOF IN SEED APPLICATION AND TREATMENT METHODS” (BASF SE, priority 2018, published 2021).
# Where two headings read alike, the source gives them in different places.
# Tests used:
# Assay type in all cases: cell-based
# Details in all cases: alone, 7 days after inoculation
# [1] = tested on: Pyricularia oryzae
# [2] = tested on: Phytophthora infestans
# [3] = tested on: Qol resistant iso-late of Pyrenophora teres; assay: Microtiter test, activity against Pyrenophora teres
# [4] = tested on: Botrytis cinerea; assay: Microtiterplate test, activity against the grey mold Botrytis cinerea
# [5] = tested on: Leptosphaeria nodorum; assay: Microtiter test, activity against wheat leaf spots caused by Leptosphaeria nodorum
molecule,measurement,setting,value
CN/C(=N\[N+](=O)[O-])NCc1cnc(Cl)s1 [Clothianidin],Observed efficacy,[1]; 63 ppm,0
"N#Cc1ccc(Oc2ccc(C(F)(F)C(O)(Cn3ncnc3S)c3ccc(F)cc3F)nc2)cc1 (stereo not shown) [Compound I, 4-[[6-[2-(2,4-difluorophenyl)-1,1-difluoro-2-hydroxy-3-(5-sulfanyl-1,2,4-triazol-1-yl)propyl]-3-pyridyl]oxy]benzonitrile]",Observed efficacy,"[2]; 4 ppm, 405 nm, 0 = growth as untreated control, 100 = no growth",24
same,Observed efficacy,"[3]; 4 ppm, 405 nm",0
same,Observed efficacy,"[1]; 1 ppm, 405 nm",0
same,Observed efficacy,"[4]; 4 ppm, 405 nm",24
same,Observed efficacy,[5]; 0.25 ppm,0
same,Observed efficacy,[5]; 1 ppm,20
same,Observed efficacy,"[5]; 4 ppm, 405 nm",37
N#Cc1c[nH]cc1-c1cccc2c1OC(F)(F)O2 [Fludioxonil],Observed efficacy,[1]; 0.016 ppm,9
same,Observed efficacy,[1]; 0.063 ppm,17
same,Observed efficacy,[1]; 0.25 ppm,26
O=[N+]([O-])NC1=NCCN1Cc1ccc(Cl)nc1 [Imidacloprid],Observed efficacy,[1]; 63 ppm,0
CC(C)C1CCC(Cc2ccc(Cl)cc2)C1(O)Cn1cncn1 (stereo not shown) [Ipconazol],Observed efficacy,[1]; 16 ppm,0
CC(O)(Cn1cncn1)c1ccc(Oc2ccc(Cl)cc2)cc1C(F)(F)F (stereo not shown) [Mefentrifluconazol],Observed efficacy,[2]; 0.016 ppm,0
same,Observed efficacy,[3]; 0.25 ppm,31
same,Observed efficacy,[4]; 0.016 ppm,0
same,Observed efficacy,[5]; 0.016 ppm,39
Cc1cc(C(F)(F)F)nn1CC(=O)N1CCC(c2nc(C3=NOC(c4c(F)cccc4F)C3)cs2)CC1 (stereo not shown) [Oxathiapirolin],Observed efficacy,[1]; 16 ppm,0
COC(=O)N(OC)c1ccccc1COc1ccn(-c2ccc(Cl)cc2)n1 [Pyraclostrobin],Observed efficacy,[5]; 0.016 ppm,42
CC(c1ccc(C(F)(F)F)nc1)S(C)(=O)=NC#N (stereo not shown) [Sulfoxaflor],Observed efficacy,[1]; 63 ppm,0
COC(=O)NC(=S)Nc1ccccc1NC(=S)NC(=O)OC [Thiophanate methyl],Observed efficacy,[1]; 4 ppm,0
Spinetoram,Observed efficacy,[1]; 63 ppm,0
